Measurements: ChEMBL document CHEMBL4177650, “Synthesis and biological evolution of hydrazones derived from 4-(trifluoromethyl)benzohydrazide” (Bioorg Med Chem Lett, 2017)
Values after ≈ are worked out from the molar mass of the structure shown. Active and inactive are the calls of the source. The calls are words filed in the database; no cut-off is given here.

What was measured:
[1] = Selectivity index, ratio of IC50 for human HepG2 cells to MIC for Mycobacterium kansasii 6509/80; assay type: toxicity; details: read-out: Selectivity Index
Nakaseomyces glabratus [2] = test: Antifungal activity against Candida glabrata 20/I after 48 hrs by microdilution broth method; assay type: functional
[3] = Cytotoxicity against mouse bone marrow macrophages after overnight incubation by MTT assay; details: BMDM
[4] = tested on: Mycobacterium tuberculosis; test: Antimycobacterial activity against Mycobacterium tuberculosis H37Rv 331/88 after 21 days by micromethod; assay type: functional; details: H37Rv 331/88, 504 h
Pichia kudriavzevii [5] = test: Antifungal activity against Candida krusei E28 after 24 hrs by microdilution broth method; assay type: functional; details: E28, 24 h
Trichosporon asahii = test: Antifungal activity against Trichosporon asahii 1188 after 24 to 48 hrs by microdilution broth method; assay type: functional, organism-based
Mycobacterium kansasii [6] = test: Antimycobacterial activity against Mycobacterium kansasii 6509/80 after 7 days by micromethod; assay type: functional; details: 6509/80, 168 h
MONO-MAC-6 [7] = test: Cytostatic activity against human MONO-MAC-6 cells incubated overnight followed by compound wash measured after 72 hrs by MTT assay; assay type: ADME, cell-based; details: MONO-MAC-6, 72 h
Candida tropicalis [8] = test: Antifungal activity against Candida tropicalis 156 after 24 hrs by microdilution broth method; assay type: functional; details: Candida tropicalis, 156, 24 h
Staphylococcus aureus [9] = test: Antibacterial activity against gram-positive Staphylococcus aureus CCM 4516/08 after 24 hrs by microdilution broth method; assay type: functional; details: CCM 4516/08, 24 h
Nakaseomyces glabratus [10] = test: Antifungal activity against Candida glabrata 20/I after 24 hrs by microdilution broth method; assay type: functional
Lichtheimia corymbifera = test: Antifungal activity against Absidia corymbifera 272 after 24 to 48 hrs by microdilution broth method; assay type: functional, organism-based
Klebsiella pneumoniae [11] = test: Antibacterial activity against extended spectrum beta-lactamase-positive Klebsiella pneumoniae J 14368/08 after 24 to 48 hrs by microdilution broth method; assay type: functional, organism-based
[12] = tested on: Mycobacterium tuberculosis; test: Antimycobacterial activity against Mycobacterium tuberculosis H37Rv 331/88 after 14 days by micromethod; assay type: functional; details: H37Rv 331/88, 336 h
[13] = tested on: Staphylococcus epidermidis; test: Antibacterial activity against gram-positive Staphylococcus epidermidis H 6966/08 after 48 hrs by microdilution broth method; assay type: functional; details: H 6966/08, 48 h
Escherichia coli [14] = test: Antibacterial activity against gram-negative Escherichia coli CCM 4517 after 48 hrs by microdilution broth method; assay type: functional; details: CCM 4517, 48 h
[15] = Selectivity index, ratio of IC50 for human HepG2 cells to MIC for Trichophyton mentagrophytes 445; assay type: toxicity; details: read-out: Selectivity Index
Staphylococcus aureus [16] = test: Antibacterial activity against gram-positive methicillin-resistant Staphylococcus aureus H 5996/08 after 24 hrs by microdilution broth method; assay type: functional; details: H 5996/08, 24 h
Mycobacterium kansasii [17] = test: Antimycobacterial activity against Mycobacterium kansasii 6509/96 after 21 days by micromethod; assay type: functional; details: 6509/96, 504 h
Candida tropicalis [18] = test: Antifungal activity against Candida tropicalis 156 after 48 hrs by microdilution broth method; assay type: functional; details: Candida tropicalis, 156, 48 h
Mycobacterium kansasii [19] = test: Antimycobacterial activity against Mycobacterium kansasii 6509/96 after 14 days by micromethod; assay type: functional; details: 6509/96, 336 h
Klebsiella pneumoniae [20] = test: Antibacterial activity against gram-negative Klebsiella pneumoniae D 11750/08 after 24 to 48 hrs by microdilution broth method; assay type: functional, organism-based
Staphylococcus aureus [21] = test: Antibacterial activity against gram-positive Staphylococcus aureus CCM 4516/08 after 48 hrs by microdilution broth method; assay type: functional; details: CCM 4516/08, 48 h
[22] = Selectivity index, ratio of IC50 for human HepG2 cells to MIC for Mycobacterium tuberculosis H37Rv 331/88; assay type: toxicity; details: read-out: Selectivity Index
Enterococcus faecalis [23] = test: Antibacterial activity against gram-positive Enterococcus faecalis J 14365/08 after 48 hrs by microdilution broth method; assay type: functional; details: J 14365/08, 48 h
[24] = Selectivity index, ratio of IC50 for human HepG2 cells to MIC for Mycobacterium kansasii 6509/96; assay type: toxicity; details: read-out: Selectivity Index
MONO-MAC-6 [25] = test: Cytotoxicity against human MONO-MAC-6 cells after overnight incubation by MTT assay; assay type: functional, cell-based
Staphylococcus aureus [26] = test: Antibacterial activity against gram-positive methicillin-resistant Staphylococcus aureus H 5996/08 after 48 hrs by microdilution broth method; assay type: functional; details: H 5996/08, 48 h
Mycobacterium avium [27] = test: Antimycobacterial activity against Mycobacterium avium 330/88 after 14 days by micromethod; assay type: functional; details: 330/88, 336 h
HepG2 [28] = test: Cytostatic activity against human HepG2 cells incubated overnight followed by compound wash measured after 72 hrs by MTT assay; assay type: ADME, cell-based; details: HepG2, 72 h
Mycobacterium kansasii [29] = test: Antimycobacterial activity against Mycobacterium kansasii 6509/80 after 21 days by micromethod; assay type: functional; details: 6509/80, 504 h
Aspergillus fumigatus = test: Antifungal activity against Aspergillus fumigatus 231 after 24 to 48 hrs by microdilution broth method; assay type: functional, organism-based
[30] = Selectivity index, ratio of IC50 for human HepG2 cells to MIC for Mycobacterium avium 330/88; assay type: toxicity; details: read-out: Selectivity Index
Enterococcus faecalis [31] = test: Antibacterial activity against gram-positive Enterococcus faecalis J 14365/08 after 24 hrs by microdilution broth method; assay type: functional; details: J 14365/08, 24 h
Pseudomonas aeruginosa = test: Antibacterial activity against gram-negative Pseudomonas aeruginosa CCM 1961 after 48 hrs by microdilution broth method; assay type: functional, organism-based
Mycobacterium avium [32] = test: Antimycobacterial activity against Mycobacterium avium 330/88 after 21 days by micromethod; assay type: functional; details: 330/88, 504 h
[33] = tested on: Trichophyton mentagrophytes; test: Antifungal activity against Trichophyton mentagrophytes 445 after 72 hrs by microdilution broth method; assay type: functional; details: Trichophyton mentagrophytes, 445, 72 h
[34] = Selectivity index, ratio of IC50 for human HepG2 cells to MIC for Candida glabrata 20/I; assay type: toxicity; details: read-out: Selectivity Index
Mycobacterium kansasii [35] = test: Antimycobacterial activity against Mycobacterium kansasii 6509/80 after 14 days by micromethod; assay type: functional; details: 6509/80, 336 h
Escherichia coli [36] = test: Antibacterial activity against gram-negative Escherichia coli CCM 4517 after 24 hrs by microdilution broth method; assay type: functional; details: CCM 4517, 24 h
Pichia kudriavzevii [37] = test: Antifungal activity against Candida krusei E28 after 48 hrs by microdilution broth method; assay type: functional; details: E28, 48 h
[38] = tested on: Staphylococcus epidermidis; test: Antibacterial activity against gram-positive Staphylococcus epidermidis H 6966/08 after 24 hrs by microdilution broth method; assay type: functional; details: H 6966/08, 24 h
Candida albicans = test: Antifungal activity against Candida albicans ATCC 44859 after 24 to 48 hrs by microdilution broth method; assay type: functional, organism-based
Mycobacterium kansasii [39] = test: Antimycobacterial activity against Mycobacterium kansasii 6509/96 after 7 days by micromethod; assay type: functional; details: 6509/96, 168 h
[40] = Selectivity index, ratio of IC50 for human HepG2 cells to MIC for gram-positive Staphylococcus aureus CCM 4516/08; assay type: toxicity; details: read-out: Selectivity Index
[41] = tested on: Trichophyton mentagrophytes; test: Antifungal activity against Trichophyton mentagrophytes 445 after 120 hrs by microdilution broth method; assay type: functional; details: Trichophyton mentagrophytes, 445, 120 h
HepG2 [42] = test: Cytotoxicity against human HepG2 cells after overnight incubation by MTT assay; assay type: cell-based

`O=C(N/N=C/c1cc(Cl)ccc1O)c1ccc(C(F)(F)F)cc1` gave a selectivity ratio [1] of over 1.6, an MIC (Nakaseomyces glabratus [2]) of 0.98 µM (≈ 0.336 µg/mL) and an IC50 [3] of over 100 µM. The MIC [4] was 62.5 µM (≈ 21.4 µg/mL), the MIC (Pichia kudriavzevii [5]) was over 125 µM and the Activity (Trichosporon asahii) was “inactive”. For the same compound, the MIC (Mycobacterium kansasii [6]) was 62.5 µM (≈ 21.4 µg/mL), the IC50 (MONO-MAC-6 [7]) was 10.3 µM and the MIC (Candida tropicalis [8]) was over 125 µM. For the same compound, the MIC (Staphylococcus aureus [9]) was 1.98 µM (≈ 0.679 µg/mL), the MIC (Nakaseomyces glabratus [10]) was at most 0.49 µM and the Activity (Lichtheimia corymbifera) was “inactive”. For the same compound, the Activity (Klebsiella pneumoniae [11]) was “inactive”, the MIC [12] was 62.5 µM (≈ 21.4 µg/mL) and the MIC [13] was 3.9 µM (≈ 1.34 µg/mL). The MIC (Escherichia coli [14]) was 250 µM (≈ 85.7 µg/mL), the selectivity ratio [15] was over 25.6 and the MIC (Staphylococcus aureus [16]) was 1.98 µM (≈ 0.679 µg/mL). It also gave an MIC (Mycobacterium kansasii [17]) of 125 µM (≈ 42.8 µg/mL), an MIC (Candida tropicalis [18]) of over 125 µM and an MIC (Mycobacterium kansasii [19]) of 125 µM (≈ 42.8 µg/mL). For the same compound, the Activity (Klebsiella pneumoniae [20]) was “inactive”, the MIC (Staphylococcus aureus [21]) was 1.98 µM (≈ 0.679 µg/mL) and the selectivity ratio [22] was over 1.6. It also gave an MIC (Enterococcus faecalis [23]) of 3.9 µM (≈ 1.34 µg/mL), a selectivity ratio [24] of over 1.6 and an IC50 (MONO-MAC-6 [25]) of 5.8 µM. For the same compound, the MIC (Staphylococcus aureus [26]) was 1.98 µM (≈ 0.679 µg/mL), the MIC (Mycobacterium avium [27]) was 62.5 µM (≈ 21.4 µg/mL) and the IC50 (HepG2 [28]) was 13.6 µM. For the same compound, the MIC (Mycobacterium kansasii [29]) was 125 µM (≈ 42.8 µg/mL), the Activity (Aspergillus fumigatus) was “inactive” and the selectivity ratio [30] was over 1.6. For the same compound, the MIC (Enterococcus faecalis [31]) was 1.98 µM (≈ 0.679 µg/mL), the Activity (Pseudomonas aeruginosa) was “inactive” and the MIC (Mycobacterium avium [32]) was 125 µM (≈ 42.8 µg/mL). It also gave an MIC [33] of 1.98 µM (≈ 0.679 µg/mL), a selectivity ratio [34] of over 25.6 and an MIC (Mycobacterium kansasii [35]) of 125 µM (≈ 42.8 µg/mL). The MIC (Escherichia coli [36]) was 250 µM (≈ 85.7 µg/mL), the MIC (Pichia kudriavzevii [37]) was over 125 µM and the MIC [38] was 3.9 µM (≈ 1.34 µg/mL). The Activity (Candida albicans) was “inactive”, the MIC (Mycobacterium kansasii [39]) was 62.5 µM (≈ 21.4 µg/mL) and the selectivity ratio [40] was over 50.5. It also gave an MIC [41] of 3.9 µM (≈ 1.34 µg/mL) and an IC50 (HepG2 [42]) of over 100 µM.
